# Test results as given in patent US20030125234A1, “Alteration of protein stability” (priority 2001, published 2003).
# “Also recorded” adds a separate entry of the source.
# Columns and labels:
# Type in all cases: biochemical
# [1] = molecular target: T1, bovine alpha-lactalbumin (Bos taurus, UniProt P00711); assay: Alpha-lactalbumin aggregation (turbidity at 360 nm) induced by DTT; details: for inhibition index: α Lactalbumin 0.4 mg/mL, 37° C., DTT, compound 1,000×, standard deviation in parenthesis
# T1 construct: purchased Sigma
# T1 sequence (P00711 20-142): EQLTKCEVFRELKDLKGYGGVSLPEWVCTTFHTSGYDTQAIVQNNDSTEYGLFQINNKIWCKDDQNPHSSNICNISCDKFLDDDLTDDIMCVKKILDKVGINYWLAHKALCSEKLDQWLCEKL
# Procedure: (§1) Bovine insulin [Sigma, St. Louis, Mo., USA] was dissolved in phosphate saline (PBS) (50 mM sodium biphosphate, 100 mM sodium chloride), pH 7.0, bovine alpha-lactalbumin [Sigma] in 50 mM sodium phosphate, 100 mM sodium chloride and 2 mM EDTA, pH 6.2, chicken egg white lysozyme [Sigma] in 100 mM Tris, 1 mM EDTA, pH 8.2, human acidic fibroblast growth factor (FGF-1) in 6.2 mM sodium biphosphate, 120 mM sodium chloride, pH 7.2, porcine somatotropin (pST) [provided by Pfizer, Inc., Groton, Conn., USA] in 10 mM phosphate, pH 6. 1, human apolactoferrin (HLF) [Sigma] in 20 mM HEPES, 154 mM NaCl, pH 7.4, porcine heart citrate synthase (CS) in 40 mM HEPES, 50 mM KCl, 10 mM (NH4)2SO4 mM potassium acetate, pH 7.8, and yeast alcohol dehydrogenase (ADH) [Sigma] in pH 7.0 PBS. Selection of buffer solutions was based on an extensive series of preliminary studies to obtain appropriate insolubilization kinetics as described below.
# (§2) Copper O-phenanthroline (1,10-phenanthroline) was prepared by mixing copper sulfate hexahydrate [Fisher] and o-phenanthroline [Sigma] in a 1:2 ratio. 1 M Dithiothreitol (DTT) was prepared at pH 7.0 PBS. Polyethylene glycol (M.W. 8000, Union Carbide, Danbury, Conn., USA) (PEG) was prepared at 20 mg/mL in 10 mM phosphate, pH 6.1.
# (§3) The following compounds were obtained from Sigma and used without further purification: oxalic acid, sodium malonate, succinic acid, glutaric acid, adipic acid, pimelic acid, suberic acid, azelaic acid, guanidine hydrochloride, ammonium formate, beta-alanine, 4-aminobutyric acid, 5-aminovaleric acid, 6-aminocaproic acid, 7-aminoheptanoic acid, hydrazine, ethylenediamine, 1,3-diaminopropane, 1,4-diaminobutane, 1,5-diaminopentane, 1,6-diaminohexane, 1,7-diaminoheptane, Glu-Glu, Glu-Lys, Lys-Lys, diglycine, triglycine, tetraglycine, pentaglycine, and hexaglycine. […] Triglycine and tetraglycine were dissolved in pH 8.6 PBS, while pentaglycine and hexaglycine were dissolved in pH 10.6 PBS.
# (§4) Each was either dissolved in pH 7.0 PBS, or pH 6.1 10 mM phosphate, and adjusted to the same pH.
# (§5) Protein aggregation was monitored for 1 hour at 360 nm using an HP8453 UV-visible spectrophotometer system [Hewlett Packard, Germany]. […] Insulin (0.25 mg/mL (4.39E-5 M)) aggregation was monitored at 25° C. after addition of potential inhibitors and 20 μL of 1 M DTT (1.27E-4 M). Alpha-lactabumin (0.4 mg/mL (2.82E-5 M)) aggregation was monitored at 37° C. in the presence of 20 μL of 1 M DTT (1.27E-4 M). Lysozyme (0.4 mg/mL (2.86E-5 M)) aggregation was monitored at 25° C. in the presence of 20 μL of 1 M DTT (1.27E-4 M). FGF-1 (50 μg/mL (3.12E-6 M)) aggregation was monitored at 50° C. Porcine somatotropin (1.27 mg/mL (5.76E-5 M)) aggregation was monitored at 60° C. in the presence of PEG 8000 (20 mg/mL) which was included to enhance the protein association process through a simple exclusion volume effect. HLF (0.4 mg/mL (5.23E-6 M)) aggregation was monitored at 43° C. in the presence of 1.27E-4 M DTT. Citrate synthase (96 μg/mL (9.80E-7 M)) aggregation was monitored at45° C. ADH (1 mg/mL (7.14E-6 M)) was monitored at 37° C. following the addition of 7.76E-5 M Cu(OP)2. Aggregation was compared to protein in the absence of the particular dipolar compound. After stirring, experiments were initiated by the addition of proteins followed by stressing reagents to 1 cm pathlength cuvettes employing a seven-position thermostatted sample holder that was cycled at 30-second intervals. Alternatively, a microtiter plate reader was employed under the same conditions in a 96 well format.
# (§6) All optical density (OD)360nm versus time results were exported into Excel [Microsoft] for data analysis.
# [2] = molecular target: T2, porcine heart citrate synthase (CS) (Sus scrofa, UniProt P00889); assay: Citrate synthase thermal aggregation (turbidity at 360 nm); details: CS 96 μg/mL, 45° C., standard deviation in parenthesis
# T2 construct: porcine heart citrate synthase (CS); from tissue; host or cells: porcine heart
# T2 sequence (P00889 28-464): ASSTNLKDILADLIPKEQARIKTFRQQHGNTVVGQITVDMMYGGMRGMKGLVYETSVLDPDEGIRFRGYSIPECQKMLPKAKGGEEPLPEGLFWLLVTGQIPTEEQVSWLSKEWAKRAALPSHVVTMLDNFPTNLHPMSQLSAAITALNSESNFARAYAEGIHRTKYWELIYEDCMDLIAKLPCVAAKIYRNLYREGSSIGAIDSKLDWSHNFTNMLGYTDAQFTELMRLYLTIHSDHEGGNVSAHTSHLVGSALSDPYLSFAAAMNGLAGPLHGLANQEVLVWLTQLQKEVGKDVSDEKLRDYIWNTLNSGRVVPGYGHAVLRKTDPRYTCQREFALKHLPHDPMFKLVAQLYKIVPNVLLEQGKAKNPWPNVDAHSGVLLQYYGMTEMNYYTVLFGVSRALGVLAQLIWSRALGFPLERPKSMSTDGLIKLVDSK
# Procedure: as §1, §3, §4, §5
# All optical density (OD)360nm versus time results were exported into Excel [Microsoft] for data analysis. […] The maximum rate of change in OD versus time plots (r) was used to determine the rate of the reaction from the slope at this point.
# [3] = molecular target: T3, yeast alcohol dehydrogenase (ADH) (Saccharomyces cerevisiae, UniProt P00330); assay: ADH oxidation-induced aggregation (turbidity at 360 nm), Cu(OP)2; details: for inhibition index: ADH 1 mg/mL, 37° C., Cu(OP)2, compound 10,000X molar excess, Infinite = complete inhibition of aggregation over one hour; for inhibition of ADH aggregation, in words: FIG. 1
# T3 construct: purchased Sigma
# T3 sequence (P00330 2-348 limits assumed): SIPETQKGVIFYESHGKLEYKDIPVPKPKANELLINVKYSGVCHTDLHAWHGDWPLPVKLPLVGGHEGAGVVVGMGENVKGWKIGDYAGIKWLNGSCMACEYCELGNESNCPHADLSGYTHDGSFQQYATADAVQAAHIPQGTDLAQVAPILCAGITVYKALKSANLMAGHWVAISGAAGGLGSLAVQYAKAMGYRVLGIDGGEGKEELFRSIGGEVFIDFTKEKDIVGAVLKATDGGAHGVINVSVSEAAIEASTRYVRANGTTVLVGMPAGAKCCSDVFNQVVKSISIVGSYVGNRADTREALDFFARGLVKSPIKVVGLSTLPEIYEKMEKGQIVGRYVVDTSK
# Procedure: as §1, §2, §3, §4, §5, §6
inhibition index [1],"inhibition index ([2]; compound 10,000X)","inhibition index ([2]; compound 50,000X)",inhibition index [3],"inhibition of α-lactalbumin aggregation, in words [1]",SMILES,"inhibition of ADH aggregation, in words [3]"
1.0 (0.2),0.9 (0.3),4.0 (2.3),0.8 (0.1),,"NCCCCN [1,4-diaminobutane]",
0.9 (0.0),0.8 (0.2),8.3 (4.5),0.9 (0.0),,"NCCCCCN [1,5-diaminopentane]",
1.8 (0.7),0.6 (0.2),1.7 (0.7),0.6 (0.1),,"NCCCCCCCN [1,7-diaminoheptane]",
2.1 (0.8),0.7 (0.1),1.9 (0.7),2.7 (0.9),,"NCCCCC(=O)O [5-aminovalerate, 5-aminovaleric acid]",
2.3 (0.6),0.5 (0.1),1.5 (0.8),3.2 (0.3),,"NCCCCCC(=O)O [6-aminocaproate, 6-aminocaproic acid]",
3.9 (2.1),0.5 (0.1),1.7 (0.4),4.9 (0.5),Potent inhibitors,"NCCCCCCC(=O)O [7-aminoheptanoate, 7-aminoheptanoic acid]",
0.7 (0.4),1.8 (0.5),18.5,202.6 (69.7),,NCCN [ethylenediamine],effective inhibitors

# More lines, now with the values behind:
SMILES,inhibition index [1],"inhibition index ([2]; compound 10,000X)","inhibition index ([2]; compound 50,000X)",inhibition index [3],"inhibition of α-lactalbumin aggregation, in words [1]","inhibition of ADH aggregation, in words [3]"
"NCCCN [1,3-diaminopropane]",0.9 (0.3),0.7 (0.3),7.7,0.7 (0.1),,
"NCCCCCCN [1,6-diaminohexane]",1.3 (0.4),0.6 (0.2),4.8 (1.5),0.8 (0.0),,
"NCCCC(=O)O [4-aminobuytrate, 4-aminobutyric acid]",2.0 (0.8),0.6 (0.1),1.2 (0.4),2.0 (0.1),,
"O=C(O)CCCCC(=O)O [adipate, adipic acid]",1.2 (0.3),1.2 (0.5),19.6 (17.1),4.9 (0.9),,
NCCC(=O)O [beta-alanine],2.1 (0.4),0.6 (0.1),1.9 (0.8),2.2 (0.3),,
"O=C(O)CCCC(=O)O [glutarate, glutaric acid]",1.1 (0.2),1.4 (0.5),6.5 (0.3),1.8 (0.4),,
NCC(=O)O [glycine],1.4 (0.3),0.8 (0.2),,54.3 (4.5),,Potent inhibition; also recorded: effective inhibitors
"O=C([O-])CC(=O)[O-].[Na+].[Na+] [malonate, sodium malonate]",1.8 (0.1),2.4 (0.5),9,18.9 (6.6),,
"O=C(O)C(=O)O [oxalate, oxalic acid]",1.3 (0.2),1.9 (0.5),6.2 (3.8),,,most potent inhibitor; also recorded: effective inhibitors
"O=C(O)CCCCCC(=O)O [pimelate, pimelic acid]",1.3 (0.3),1.4 (0.4),6.7 (0.1),9.0 (1.3),,
"O=C(O)CCCCCCC(=O)O [suberate, suberic acid]",2.0 (0.7),1.1 (0.2),14.1 (2.1),15.5 (1.4),,
"O=C(O)CCC(=O)O [succinate, succinic acid]",1.1 (0.3),2.1 (0.5),9.6,2.7 (0.7),,
